Where “and” joins values, the source holds several entries; their conditions need not be identical. Equal entries are not always repeated. Results filed as inconclusive are left out. Calls of active or inactive are those of the source.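 Rule for the calls: active = fitted half-maximal concentration of signal decrease at or below twice the sample's top tested concentration; inconclusive = flat curve between -70 and -30 percent, or poor fit; inactive = flat within 30 percent, signal rise, or potency above limit.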
molecular target: T. gondii ME49Luc in IFN-y HeLa, luciferase, 72 h; experiment: inhibitors of Toxoplasma growth in IFN-γ-primed HeLa – cell-based, ME49Luc, luciferase, 72 h, dose response (AID 1259418)

SMILES | AC50
O=C(Cc1cccnc1)N1CC(=O)N2[C@@H](CO)[C@H](c3ccc(C4=CCCCC4)cc3)[C@@H]2C1 | > 39 µM (inactive)
COc1ccc(-c2nc(NCCN(C)C3CCCCC3)c3ccccc3n2)cc1 | 3.36 µM
CCOc1ccccc1N(Cc1nc(-c2ccccc2)oc1C)S(=O)(=O)c1cccs1 | 7.76 µM
CCCNC(=O)N1CCN(Cc2nc(-c3ccc(C)cc3)oc2C)CC1 | 26.1 µM
COc1cc(CN2C[C@@H]3N[C@H](C2)C3c2ccc(-c3ccc(C#N)cc3)cc2)cc(OC)c1 (some centres not stated) | 6.02 µM and 7.29 µM and 16.7 µM
O=C1c2c(O)ccc(O)c2C(=O)c2c(NCCNCCO)ccc(NCCNCCO)c21 | 0.128 µM
Cc1cccc(-c2ccc(C3[C@@H]4CN(Cc5cccc(F)c5)C[C@H]3N4)cc2)c1 (some centres not stated) | 26.2 µM
Cc1ccc(CNC2=NCCNC23CCN(S(=O)(=O)c2cc(C)cc(C)c2)CC3)cc1 | 23.4 µM
Cc1ccc(NC(=O)N2CCN(Cc3nc(-c4cccc(Cl)c4)oc3C)CC2)cc1F | 7.24 µM
CN(C)C(=O)c1ccc(-c2ccc3c(c2)[C@@H]2[C@@H](CCN2C(=O)C2CCCC2)[C@H](CO)N3C)cc1 | 20.6 µM
N#C[C@H]1[C@@H](c2ccc(C3=CCCCC3)cc2)[C@@H](CO)N1C(=O)Nc1ccccc1F | 23.2 µM
CN1C(=O)CCc2cc(NC(=O)C(F)(F)F)ccc21 | 17.1 µM
COc1ccc(-c2nc(NCCCN3CCCC3)c3ccccc3n2)cc1 | 14.2 µM
O=C(c1ccc(F)cc1)N1CC(=O)N2[C@@H](CO)[C@@H](c3ccc(C#CCC4CCCC4)cc3)[C@@H]2C1 | 23.5 µM
O=C(Nc1cccnc1)c1cc(-c2cnc(-c3ccccc3)nc2)cn1CC1CC1 | 34.2 µM and 26.9 µM
Cc1nc(OCC(=O)Nc2ccc(Cl)c(Cl)c2)c2ccccc2n1 | > 39 µM (inactive)
O=C(Nc1cccc(F)c1)N1CCCCN2[C@H](CO)[C@H](c3ccc(C#Cc4cccnc4)cc3)[C@H]2C1 | 19.3 µM
Cc1oc(-c2cccc(Cl)c2)nc1CN1CCN(C(=O)Nc2ccc(F)cc2)CC1 | 24.1 µM
O=C(NCc1ccccc1)C1CC2(CO1)CN(C(=O)c1ccc(F)cc1)c1ccccc12 (configuration not stated) | > 39 µM (inactive)
COCCn1c(=S)[nH]c2cc(C(=O)N3CCC(O)(c4cccc(C(F)(F)F)c4)CC3)ccc2c1=O | 34.1 µM
O=C(C(=O)N1CCN(c2ncnc3c2nnn3Cc2ccccc2)CC1)c1c[nH]c2ccccc12 | 13.5 µM
Cc1cccc(S(=O)(=O)N2CCc3nc(-c4cnn(C)c4)nc(NC4CC4)c3C2)c1 | 19 µM
CN(C[C@H]1N[C@@H](CO)[C@H]1c1ccc(-c2ccc(F)cc2)cc1)C(=O)C1CCC1 | 16.2 µM

SMILES | AC50
COc1ccccc1S(=O)(=O)N1CC[C@@H]2[C@H]1c1cc(-c3cccc(C#N)c3)ccc1N(C)[C@H]2CO | 18.9 µM
N#C[C@@H]1N[C@H](CO)[C@H]1c1ccc(-c2cccc(F)c2)cc1 | 26.3 µM
OC[C@H]1Nc2ccc(-c3cccc(F)c3)cc2[C@@H]2[C@H]1CCN2Cc1ccc(F)cc1 | 20 µM
N#C[C@H]1[C@@H](c2ccc(-c3cccc(F)c3)cc2)[C@H](CO)N1C(=O)NC1CCCC1 | 10.1 µM
Cc1cccc(C(=O)Nc2c(C(=O)NCc3cccnc3)[nH]c3ccccc23)c1 | > 39 µM (inactive)
O=C(Nc1ccccc1F)N1CCCCN2[C@@H](CO)[C@@H](c3ccc(/C=C/c4ccccc4)cc3)[C@@H]2C1 | 22 µM
COCCCNc1ncnc2c1cnn2-c1cccc(C)c1 | 14.6 µM
Fc1cccnc1OC1COC2(CCN(Cc3ccsc3)CC2)C1 (configuration not stated) | 24.8 µM
Cc1ccc(-c2coc(-c3ccc(NS(=O)(=O)c4ccc(F)c(Cl)c4)cc3)n2)c(C)c1 | 24.7 µM
O=C(Cc1cccnc1)N1CC(=O)N2[C@H](CO)[C@H](c3ccc(C#CC4CCCCC4)cc3)[C@H]2C1 | 19.4 µM
CCOc1ccc(-c2nc(CN3CCN(C(=O)Nc4ccc(Cl)cc4)CC3)c(C)o2)cc1 | 5.17 µM
O=C(Nc1ccc(Cl)cc1)N1[C@@H]2CNC[C@H]1C2c1ccc(-c2ccccc2)cc1 (some centres not stated) | 2.02 µM and 2.94 µM
Cc1ccc(Cn2c(CN3CCC(C(=O)NCCCN4CCCC4)CC3)cc3ccccc32)cc1 | 13.4 µM
Cc1ccc2[nH]c(C(=O)NCc3cccnc3)c(NC(=O)c3ccc(F)cc3)c2c1 | 27.6 µM
CC(C)CNC(=O)c1nc2c(s1)CCN(C(=O)NCc1ccccc1)CC2 | 16.1 µM
COC[C@]12CCC[C@@H]1CN(S(=O)(=O)c1cccc(OC)c1)C2 | 36.2 µM
O=C(NCCCN1CCCC1=O)C1CCN(Cc2cc3ccccc3n2Cc2cccc(F)c2)CC1 | 30.3 µM
C=C(C)[C@@H]1CC[C@]2(C(=O)O)CC[C@]3(C)[C@H](CC[C@@H]4[C@@]5(C)CC[C@H](O)C(C)(C)[C@@H]5CC[C@]43C)[C@@H]12 | 30 µM
COc1cccc(C#Cc2ccc([C@@H]3[C@@H](C#N)N[C@@H]3CO)cc2)c1 | 38.4 µM
Cc1ccccc1S(=O)(=O)N1C[C@@H]2N[C@H](C1)C2c1ccc(/C=C/c2ccccc2)cc1 (some centres not stated) | 9.34 µM
CC[C@H]1CN2CCC1C[C@@H]2[C@H](O)c1ccnc2ccc(OC)cc12 (some centres not stated) | 20 µM
COCC(=O)N1CCC2(CC1)CN(Cc1nccs1)CCO2 | 17.9 µM
O=C(CC1N=C2c3ccccc3N=C(SCc3ccc(F)cc3)N2C1=O)NCc1cccs1 (configuration not stated) | 35 µM

SMILES | AC50
COc1ccccc1N(Cc1nc(-c2cccc(C)c2)oc1C)S(=O)(=O)c1ccccc1 | 13.3 µM
Cc1nc(OCC(=O)Nc2c(C)cccc2C)c2ccccc2n1 | 28.8 µM
Cc1ccc(CNC(=O)COc2nc(C)nc3ccccc23)cc1 | > 39 µM (inactive)
COc1cccc(C(=O)Nc2ccc3c(c2)C(=O)N(C)[C@H]2CC[C@@H](CC(=O)N[C@@H](C)c4ccccc4)O[C@H]2CO3)c1 | > 39 µM (inactive)
C[C@H](CO)N1C[C@H](C)[C@H](CN(C)Cc2ccc(Cl)c(Cl)c2)Oc2c(NS(=O)(=O)c3ccc(F)cc3)cccc2C1=O | 20.9 µM
COc1ccc(-c2nc(CN(c3ccccc3OC)S(=O)(=O)c3cccs3)c(C)o2)cc1 | 13.7 µM
CCOc1ccc(N(Cc2nc(-c3ccc(OC)cc3)oc2C)S(=O)(=O)c2cccs2)cc1 | 4.79 µM
CCc1nc(OCC(=O)NCc2ccc(SC)cc2)c2ccccc2n1 | > 39 µM (inactive)
COc1cccc(NC(=O)N2CCc3nc(-c4ccc(C)cc4)sc3C2)c1 | 26.8 µM
CCN(C[C@@H]1N[C@@H](CO)[C@H]1c1ccc(-c2ccc(F)cc2)cc1)C(=O)CN(C)C | 21.3 µM
CCCCNC(=O)CC1N=C2c3ccccc3N=C(SCc3ccc(C)cc3)N2C1=O (configuration not stated) | 10.4 µM
COc1ccccc1CNC(=O)CC1N=C2c3ccccc3N=C(SCc3cc(=O)n4cc(Cl)ccc4n3)N2C1=O (configuration not stated) | 29.6 µM
CCc1ccc(S(=O)(=O)N2CCC3(CC2)NCCN=C3NCc2ccc(F)c(Cl)c2)cc1 | 4.73 µM
COc1cccc(NC(=O)Nc2ccc(-c3nc(-c4ccc(C)cc4C)co3)cc2)c1 | > 39 µM (inactive)
CN1C(=O)CCc2cc(NC(=O)Cc3ccc(Cl)cc3)ccc21 | 23.8 µM
CCS(=O)(=O)N1CCc2nc(-c3cccc(F)c3)nc(NC3CC3)c2C1 | 31.4 µM
C[C@@H]1CN([C@@H](C)CO)C(=O)c2cccc(NC(=O)NC3CCCCC3)c2O[C@@H]1CN(C)Cc1ccc(C(F)(F)F)cc1 | 25.7 µM
CC(C)(C)c1ccc(S(=O)(=O)N2CCC[C@@H]2C(=O)NCCc2csc(-c3ccccc3)n2)cc1 | 4.48 µM
CCc1ccc(S(=O)(=O)Nc2ccc(-c3nc(-c4ccc(C)cc4C)co3)cc2)cc1 | 8.52 µM
Cc1cc(C(=O)Nc2ccc3c(c2)C(=O)N(C)[C@H]2CC[C@@H](CC(=O)NCc4ccc(-c5ccccc5)cc4)O[C@@H]2CO3)no1 | 20.8 µM
CC(C)CCN1Cc2c(C(=O)NC3CCCCC3)ncn2-c2ccccc2S1(=O)=O | 20.6 µM
CN1c2ccc(-c3ccccc3)cc2[C@@H]2[C@@H](CCN2C(=O)CC2CC2)[C@@H]1CO | 18.5 µM and > 39 µM (inactive)
Cc1cc(C)c(S(=O)(=O)N2CCC3(CC2)NCCN=C3NCc2cc(F)cc(F)c2)cc1C | 7.83 µM

SMILES | AC50
CO[C@@H]1[C@@H](OC(N)=O)[C@@H](O)[C@H](Oc2ccc3c(O)c(NC(=O)c4ccc(O)c(CC=C(C)C)c4)c(=O)oc3c2C)OC1(C)C | 22.2 µM
COc1ccc(-c2nc(CN(c3ccccc3)S(=O)(=O)c3cccs3)c(C)o2)cc1OC | 6.84 µM
O=C(c1ccc(-n2nc(C(F)(F)F)c3c2CCCC3)cc1)N1CCN(c2cccc(Cl)c2)CC1 | 8.82 µM
O=C(CC1N=C2c3ccccc3N=C(SCc3cccc(F)c3)N2C1=O)NC1CCCCC1 (configuration not stated) | 30 µM
O=S(=O)(c1ccccc1)N1CCCCN2[C@@H](CO)[C@@H](c3ccc(C#CC4CCCC4)cc3)[C@@H]2C1 | 17.5 µM and 6.86 µM
Cc1ccc(-c2nc(CN(c3ccccc3)S(=O)(=O)c3cccs3)c(C)o2)cc1 | 10.8 µM
CN1C(=O)c2cc(NC(=O)c3cccc(F)c3)ccc2OC[C@@H]2O[C@H](CC(=O)NCC3CCCCC3)CC[C@@H]21 | 18.6 µM and 22.1 µM
COc1ccccc1-c1nc(CN(c2ccccc2OC)S(=O)(=O)c2ccccc2C)c(C)o1 | 6.87 µM
COc1ccccc1C(=O)N1CCC2(CC1)Nc1cc(F)ccc1-n1cccc12 | > 39 µM (inactive)
O=C(CCC1N=C2c3ccccc3N=C(SCc3cccc(F)c3)N2C1=O)NCc1ccccc1 (configuration not stated) | 27.4 µM
Cc1ccc(CSC2=Nc3ccccc3C3=NC(CCC(=O)NCc4cccs4)C(=O)N23)cc1 (configuration not stated) | 17.5 µM
CCC(=O)N1CC[C@@H]2[C@H]1c1cc(-c3ccc(C#N)cc3)ccc1N(C)[C@H]2CO | > 42 µM (inactive)
O=C(Cc1ccncc1)N1C[C@@H]2N[C@H](C1)C2c1ccc(/C=C/c2ccccc2)cc1 (some centres not stated) | 20.9 µM
COc1ccc(-c2nc(CN(c3ccccc3OC)S(=O)(=O)c3ccc(OC)cc3)c(C)o2)cc1 | 5.84 µM
Cc1ccc(NC(=O)N2CCN(Cc3nc(-c4ccccc4C)oc3C)CC2)cc1F | > 39 µM (inactive)
Cc1ccc(Nc2nc(-c3ccccc3Cl)nc3ccccc23)cc1 | 14.2 µM
CS(=O)(=O)N1CC(=O)N2[C@H](CO)[C@@H](c3ccc(C#Cc4ccc(F)cc4)cc3)[C@H]2C1 | 39 µM
Cc1ccccc1-c1ccc([C@H]2[C@H](CO)N3C(=O)CN(C(=O)c4ccncc4)C[C@@H]23)cc1 | 21.5 µM
COc1cccc(NC(=O)COc2nc(C)nc3ccccc23)c1 | 36.7 µM
Cc1ccc(S(=O)(=O)N2CCC3(CC2)NCCN=C3NCc2ccc(Cl)cc2)cc1C | 8.04 µM
OC1(c2cccc(C(F)(F)F)c2)CCN(Cc2ccc3[nH]ccc3c2)CC1 | 33.5 µM
Cc1cccc(-c2nc(CSc3nc4c(c(=O)[nH]3)CN(Cc3ccccc3)CC4)c(C)o2)c1 | > 39 µM (inactive)
Cc1cccc(C(=O)N2CCC(C(=O)NCCc3csc(C)n3)CC2)c1 | 26.4 µM
